Measurements: US20230233569A1 (Revolution Medicines, Inc., priority 2020, published 2023)
Where two headings read alike, the source gives them in different places.

Experiments:
AsPC-1 (K-Ras G12D) [1] = experiment: Potency assay: pERK; format: cell-based; details: Homo sapiens
AsPC-1 (K-Ras G12D) [2] = experiment: CellTiter-Glo cell viability assay; format: cell-based; details: Homo sapiens, ASPC1, 120 h
Protocol: Determination of Cell Viability in RAS Mutant Cancer Cell Lines
Protocol: CellTiter-Glo® Cell Viability Assay
Note—The following protocol describes a procedure for monitoring cell viability of K-Ras mutant cancer cell lines in response to a compound of the invention. Other RAS isoforms may be employed, though the number of cells to be seeded will vary based on cell line used.
Test compounds (132.5 nL) were directly dispensed into the assay plates containing cells. […] On day 5, assay plates and their contents were equilibrated to room temperature for approximately 30 minutes. […] Luminescence was measured using the PerkinElmer Enspire. Data were normalized by the following: (Sample signal/Avg. DMSO)*100. The data were fit using a four-parameter logistic fit.

KRAS G12D = KRAS G12D (Homo sapiens, UniProt P01116+P62937, G12D); experiment: Ras-Raf disruption / FRET / MOA assay (BRAF RBD); format: biochemical; details: KRAS G12D FRET data IC50, Ras-Raf disruption, with Cyclophilin A
Outline: (§1)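 Compound-induced Ras–Cyclophilin A ternary complex disrupting BRAF RBD binding, read as IC50 from reduced TR-FRET ratio relative to DMSO. Final: Ras-GMPPNP 12.5 nM, BRAF RBD 50 nM, Cyclophilin A 25 μM, top compound 30 μM (3-fold, 10 points); 3 h at 25 °C, then 1.5 h with detection antibodies.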

KRAS G12S = KRAS G12S (Homo sapiens, UniProt P01116+P62937, G12S); experiment: Ras-Raf disruption / FRET / MOA assay (BRAF RBD); format: biochemical; details: KRAS G12S FRET data IC50, Ras-Raf disruption, with Cyclophilin A
Outline: as §1

KRAS G12V = KRAS G12V (Homo sapiens, UniProt P01116+P62937, G12V); experiment: Ras-Raf disruption / FRET / MOA assay (BRAF RBD); format: biochemical; details: KRAS G12V FRET data IC50, Ras-Raf disruption, with Cyclophilin A
Outline: as §1

KRAS G13C = KRAS G13C (Homo sapiens, UniProt P01116+P62937, G13C); experiment: Ras-Raf disruption / FRET / MOA assay (BRAF RBD); format: biochemical; details: KRAS G13C FRET data IC50, Ras-Raf disruption, with Cyclophilin A
Outline: as §1

KRAS G13D = KRAS G13D (Homo sapiens, UniProt P01116+P62937, G13D); experiment: Ras-Raf disruption / FRET / MOA assay (BRAF RBD); format: biochemical; details: KRAS G13D FRET data IC50, Ras-Raf disruption, with Cyclophilin A
Outline: as §1

KRAS WT = KRAS WT (Homo sapiens, UniProt P01116+P62937); experiment: Ras-Raf disruption / FRET / MOA assay (BRAF RBD); format: biochemical; details: KRAS WT FRET data IC50, Ras-Raf disruption, with Cyclophilin A
Outline: as §1

NRAS G12C = NRAS G12C (Homo sapiens, UniProt P01111+P62937, G12C); experiment: Ras-Raf disruption / FRET / MOA assay (BRAF RBD); format: biochemical; details: NRAS G12C FRET data IC50, NRAS G12C
Outline: as §1

KRAS G12C = KRAS G12C (Homo sapiens, UniProt P01116+P62937, G12C); experiment: Ras-Raf disruption / FRET / MOA assay (BRAF RBD); format: biochemical; details: KRAS G12C FRET data IC50, Ras-Raf disruption, with Cyclophilin A
Outline: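 TR-FRET read-out after 1.5 h with anti-His Eu-W1024 (10 nM) and anti-GST APC (50 nM), following 3 h at 25 °C of compound (top 30 μM, 3-fold, 10 points) with 25 μM Cyclophilin A, 12.5 nM GMPPNP-loaded K-Ras G12C and 50 nM BRAF RBD; IC50 reported.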

[3] = ASPC1, AsPC-1 KRAS G12D, read-out: pERK EC50
[4] = K-Ras G12D, 5-day treatment, read-out: AsPC-1 Cell Viability assay data IC50
[5] = read-out: AsPC-1 Cell Viability assay data IC50, K-Ras G12D, 5-day treatment

KRAS G13D, sequence (P01116 1-169 isoform P01116-2 G13D limits assumed): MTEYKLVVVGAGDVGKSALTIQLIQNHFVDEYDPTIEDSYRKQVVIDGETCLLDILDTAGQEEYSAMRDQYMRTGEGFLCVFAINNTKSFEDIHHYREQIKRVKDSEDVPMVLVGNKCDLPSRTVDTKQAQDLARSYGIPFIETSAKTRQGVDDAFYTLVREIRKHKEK
KRAS G13D, sequence (P62937 whole entry): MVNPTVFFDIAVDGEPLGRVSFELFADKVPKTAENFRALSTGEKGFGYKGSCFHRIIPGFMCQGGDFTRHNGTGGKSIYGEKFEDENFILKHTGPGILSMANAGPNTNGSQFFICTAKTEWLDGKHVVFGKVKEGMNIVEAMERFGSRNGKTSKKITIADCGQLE
NRAS G12C, sequence (P01111 whole entry G12C): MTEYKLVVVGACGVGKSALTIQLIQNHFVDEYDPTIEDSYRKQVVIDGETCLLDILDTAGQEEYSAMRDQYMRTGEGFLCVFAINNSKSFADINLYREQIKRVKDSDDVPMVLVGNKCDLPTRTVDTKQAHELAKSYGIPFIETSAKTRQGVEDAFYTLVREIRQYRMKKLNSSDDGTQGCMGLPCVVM
NRAS G12C, sequence (P62937 whole entry): as the sequence (P62937 whole entry) above
KRAS G12D, sequence (P01116 1-169 isoform P01116-2 G12D limits assumed): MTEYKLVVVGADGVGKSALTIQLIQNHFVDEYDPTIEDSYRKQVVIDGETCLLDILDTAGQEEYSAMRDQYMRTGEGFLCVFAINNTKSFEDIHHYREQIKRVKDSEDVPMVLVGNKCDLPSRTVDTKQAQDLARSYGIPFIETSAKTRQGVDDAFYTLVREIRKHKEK
KRAS G12D, sequence (P62937 whole entry): as the sequence (P62937 whole entry) above
KRAS WT, sequence (P01116 1-169 isoform P01116-2 limits assumed): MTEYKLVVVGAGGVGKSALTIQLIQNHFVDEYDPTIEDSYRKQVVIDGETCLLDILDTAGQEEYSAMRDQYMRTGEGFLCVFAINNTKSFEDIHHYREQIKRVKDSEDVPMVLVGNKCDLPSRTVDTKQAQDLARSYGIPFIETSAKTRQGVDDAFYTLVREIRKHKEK
KRAS WT, sequence (P62937 whole entry): as the sequence (P62937 whole entry) above
KRAS G12V, sequence (P01116 1-169 isoform P01116-2 G12V limits assumed): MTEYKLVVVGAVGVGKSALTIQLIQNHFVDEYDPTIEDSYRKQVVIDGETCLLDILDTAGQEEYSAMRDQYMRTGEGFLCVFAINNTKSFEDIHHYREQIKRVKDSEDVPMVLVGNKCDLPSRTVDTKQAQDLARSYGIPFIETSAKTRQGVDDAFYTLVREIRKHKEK
KRAS G12V, sequence (P62937 whole entry): as the sequence (P62937 whole entry) above
KRAS G12S, sequence (P01116 1-169 isoform P01116-2 G12S limits assumed): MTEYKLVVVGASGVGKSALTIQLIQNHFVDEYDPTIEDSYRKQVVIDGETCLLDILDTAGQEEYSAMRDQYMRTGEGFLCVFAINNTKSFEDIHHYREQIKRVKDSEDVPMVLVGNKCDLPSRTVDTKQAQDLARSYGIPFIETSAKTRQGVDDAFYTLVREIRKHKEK
KRAS G12S, sequence (P62937 whole entry): as the sequence (P62937 whole entry) above
KRAS G13C, sequence (P01116 1-169 isoform P01116-2 G13C limits assumed): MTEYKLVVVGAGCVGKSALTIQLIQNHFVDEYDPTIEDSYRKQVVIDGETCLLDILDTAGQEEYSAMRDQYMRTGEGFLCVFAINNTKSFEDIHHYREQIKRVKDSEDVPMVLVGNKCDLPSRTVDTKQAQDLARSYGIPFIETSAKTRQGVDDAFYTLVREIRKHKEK
KRAS G13C, sequence (P62937 whole entry): as the sequence (P62937 whole entry) above
KRAS G12C, sequence (P01116 1-169 isoform P01116-2 G12C limits assumed): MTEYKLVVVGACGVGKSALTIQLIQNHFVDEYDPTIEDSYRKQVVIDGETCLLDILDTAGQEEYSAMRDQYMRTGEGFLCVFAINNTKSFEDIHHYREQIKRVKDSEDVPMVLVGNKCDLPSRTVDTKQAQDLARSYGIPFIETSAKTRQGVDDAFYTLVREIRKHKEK
KRAS G12C, sequence (P62937 whole entry): as the sequence (P62937 whole entry) above

Structure (SMILES)	EC50 (AsPC-1 (K-Ras G12D) [1]; [3]) [nM]	IC50 (AsPC-1 (K-Ras G12D) [2]; [4]) [nM]	EC50 (AsPC-1 (K-Ras G12D) [1]; ASPC1, read-out: pERK EC50) [nM]	IC50 (AsPC-1 (K-Ras G12D) [2]; [5]) [nM]	IC50 (KRAS G12D) [nM]	IC50 (KRAS G12S) [nM]	IC50 (KRAS G12V) [nM]	IC50 (KRAS G13C) [nM]	IC50 (KRAS G13D) [nM]	IC50 (KRAS WT) [nM]	IC50 (NRAS G12C) [nM]	IC50 (KRAS G12C) [nM]
CCn1c(-c2cccnc2[C@H](C)OC)c2c3cc(ccc31)-c1cc(O)cc(c1)C[C@H](NC(=O)[C@@H](C(C)C)N(C)C(=O)[C@@]1(C)CCCN1C(=O)[C@@H]1CN1)C(=O)N1CCC[C@H](N1)C(=O)OCC(C)(C)C2 [Example 242]	< 5000	1000 to 10000										
CCn1c(-c2cccnc2[C@H](C)OC)c2c3cc(ccc31)-c1cc(O)cc(c1)C[C@H](NC(=O)[C@H](C(C)C)N(C)C(=O)[C@H]1CCCN1C(=O)[C@@H]1CN1)C(=O)N1CCC[C@H](N1)C(=O)OCC(C)(C)C2 [Example 151]			< 5000	1000 to 10000	100 to 1000	100 to 1000	10 to 100	100 to 1000	100 to 1000	100 to 1000	< 10	< 10
CCn1c(-c2cccnc2[C@H](C)OC)c2c3cc(ccc31)-c1cc(O)cc(c1)C[C@H](NC(=O)[C@H](C(C)C)N(C)C(=O)CNC(=O)[C@H]1CN1)C(=O)N1CCC[C@H](N1)C(=O)OCC(C)(C)C2 [Example 140]			< 5000	1000 to 10000	10 to 100	10 to 100	10 to 100	< 10	10 to 100	10 to 100	< 10	< 10
CCn1c(-c2cccnc2[C@H](C)OC)c2c3cc(ccc31)-c1cc(O)cc(c1)C[C@H](NC(=O)[C@H](C(C)C)N(C)C(=O)CN(C)C(=O)[C@@H]1CN1CCO)C(=O)N1CCC[C@H](N1)C(=O)OCC(C)(C)C2 (stereo partly shown) [Example 162]			< 5000	1000 to 10000	100 to 1000	10 to 100	10 to 100	10 to 100	10 to 100	10 to 100	< 10	< 10
CCn1c(-c2cccnc2[C@H](C)OC)c2c3cc(ccc31)-c1cc(O)cc(c1)C[C@H](NC(=O)[C@H](C(C)C)N(C)C(=O)[C@]13C[C@H]1CCN3C(=O)[C@H]1CN1)C(=O)N1CCC[C@H](N1)C(=O)OCC(C)(C)C2 [Example 244]	< 5000	1000 to 10000										
CCn1c(-c2cccnc2[C@H](C)OC)c2c3cc(ccc31)-c1cc(O)cc(c1)C[C@H](NC(=O)[C@H](C(C)C)N(C)C(=O)[C@H]1CCCN1C(=O)[C@H]1CN1)C(=O)N1CCC[C@H](N1)C(=O)OCC(C)(C)C2 [Example 152]			< 5000	1000 to 10000	100 to 1000	100 to 1000	100 to 1000	10 to 100	100 to 1000	100 to 1000	10 to 100	10 to 100
CCn1c(-c2cccnc2[C@H](C)OC)c2c3cc(ccc31)-c1cc(O)cc(c1)C[C@H](NC(=O)[C@H](C(C)C)N(C)C(=O)CN(C)C(=O)[C@H]1CN1CCO)C(=O)N1CCC[C@H](N1)C(=O)OCC(C)(C)C2 (stereo partly shown) [Example 161]			< 5000	1000 to 10000	100 to 1000	10 to 100	10 to 100	10 to 100	100 to 1000	10 to 100	< 10	< 10
CCn1c(-c2cccnc2[C@H](C)OC)c2c3cc(ccc31)-c1cc(O)cc(c1)C[C@H](NC(=O)[C@H](C(C)C)N(C)C(=O)CN(C)C(=O)[C@H]1N[C@@H]1C1CC1)C(=O)N1CCC[C@H](N1)C(=O)OCC(C)(C)C2 [Example 135]				100 to 1000	10 to 100	< 10	10 to 100	< 10	10 to 100	10 to 100	< 10	< 10
CCn1c(-c2cccnc2[C@H](C)OC)c2c3cc(ccc31)-c1cc(O)cc(c1)C[C@H](NC(=O)[C@H](C(C)C)N(C)C(=O)[C@H]1CC[C@@H](C)N1C(=O)[C@@H]1CN1)C(=O)N1CCC[C@H](N1)C(=O)OCC(C)(C)C2 [Example 153]			< 5000	1000 to 10000	100 to 1000	100 to 1000	100 to 1000	100 to 1000	100 to 1000	100 to 1000	10 to 100	10 to 100
CCn1c(-c2cnccc2COC)c2c3cc(ccc31)-c1cc(O)cc(c1)C[C@H](NC(=O)[C@H](C(C)C)N(C)C(=O)CN(C)C(=O)[C@H]1N[C@H]1C(=O)OC)C(=O)N1CCC[C@H](N1)C(=O)OCC(C)(C)C2 [Example 51]			< 5000	> 10000								
CCn1c(-c2cnccc2COC)c2c3cc(ccc31)-c1cc(O)cc(c1)C[C@H](NC(=O)[C@H](C(C)C)N(C)C(=O)CN(C)C(=O)[C@@H]1N[C@@H]1c1ccccc1)C(=O)N1CCC[C@H](N1)C(=O)OCC(C)(C)C2 [Example 110]			< 5000	1000 to 10000								
CCn1c(-c2cnccc2COC)c2c3cc(ccc31)-c1cc(O)cc(c1)C[C@H](NC(=O)[C@H](C(C)C)N(C)C(=O)CN(C)C(=O)[C@H]1N[C@H]1C1CC1)C(=O)N1CCC[C@H](N1)C(=O)OCC(C)(C)C2 [Example 104]			< 5000	1000 to 10000								
CCn1c(-c2cccnc2[C@H](C)OC)c2c3cc(ccc31)-c1cc(O)cc(c1)C[C@H](NC(=O)[C@@H](C(C)C)N(C)C(=O)[C@@]1(C)CCCN1C(=O)[C@H]1CN1)C(=O)N1CCC[C@H](N1)C(=O)OCC(C)(C)C2 [Example 240]	< 5000	1000 to 10000										
CCn1c(-c2cnccc2COC)c2c3cc(ccc31)-c1cc(O)cc(c1)C[C@H](NC(=O)[C@H](C(C)C)N(C)C(=O)CN(C)C(=O)C1CN1)C(=O)N1CCC[C@H](N1)C(=O)OCC(C)(C)C2 (stereo partly shown) [Example 33]			< 5000									10 to 100
CCn1c(-c2cnccc2COC)c2c3cc(ccc31)-c1cc(O)cc(c1)C[C@H](NC(=O)[C@H](C(C)C)N(C)C(=O)CN(C)C(=O)[C@@H]1N[C@@H]1C)C(=O)N1CCC[C@H](N1)C(=O)OCC(C)(C)C2 [Example 105]			< 5000	1000 to 10000								
